Here are results for 18 compounds from US20110009628A1, “Compounds and Compositions for Modulating Lipid Levels and Methods of Preparing Same” (priority 2009, published 2011).

Data set [1] deals with LDLR mRNA expression in HepG2 cells. The experiment in a line: LDLR mRNA expression in HepG2 cells, semi-quantitative RT-PCR. The conditions noted are these: 8 hours, FIG. 1. In kind it is cell-based, human. As for the experimental part: HepG2 cells obtained from American Tissue Culture Collection (Manassas, Va., USA) were seeded in 6-well culture plates at a density of 0.8×10^6 cells/well cultured in EMEM containing 0.5% FBS and were treated with each purified compound at indicated doses for 8 hours. Total RNA was isolated, and 2 μg per sample was reverse transcribed with random primers using M-MLV (Promega) at 37° C. for 1 hour. PCR was carried out at 94° C. for 30 sec, 60° C. for 30 sec, and 72° C. for 30 sec with initial activation of the enzyme at 94° C. for 1 minute. Thirty cycles were performed for LDLR and GAPDH. PCR was performed using primers HLDLR-up and HLDLR-lo for LDLR and primers HGAPDH-up and HGAPDH-lo for GAPDH. The PCR products were separated on a 1% agarose gel and the band intensity was quantitated. LDLR mRNA levels were corrected by measuring GAPDH mRNA levels.

Data set [2] concerns LDLR ligand uptake activity in HepG2 cells. The experiment in a line: DiI-LDL uptake in HepG2 cells (Example 6). Note: key: +: slightly increased fluorescent intensity over control; ++: modestly increased fluorescent intensity over control; +++: strongly increased fluorescent intensity over control. The data set is classed as cell-based, human. The conditions noted are these: 20 hours. How it is done:
HepG2 cells (2×10^5 cells/well) in 24-well culture plates were treated with various compounds at indicated concentrations for 20 hours. The fluorescent 1.1′-dioctadecyl-3,3,3′,3′-tetramethylindocarbocyanin perchlorate (DiI-LDL) (Biomedical Technologies, Stoughton, Mass.) at a concentration of 2 μg/mL was added to cells at the end of treatment. After 4 hours, the medium was removed, cells were washed with cold PBS, and were examined immediately under a fluorescent microscope (Nikon) at 200× amplification. The fluorescent intensity in compound-treated cells was compared to that in untreated control cells. […] In these experiments berberine chloride was used for comparison.

Data set [3] relates to LDLR mRNA expression in HepG2 cells. Briefly: LDLR mRNA expression in HepG2 cells, quantitative real-time RT-PCR (Example 7). In kind it is cell-based, human. The conditions noted are these: dose less than or equal to 10 μM, 24 hours. As for the experimental part:
In yet another experiment, HepG2 cells were treated with various compounds for 24 hours at the indicated doses. Total RNA was isolated and 2 μg was used to generate cDNA in a reaction containing random primers and M-MLV at 37° C. for 1 hour in a volume of 25 μL. Real-time PCR was performed on the cDNA using MCEP REALPLEX 2 SYSTEM (Eppendorf) and Universal MasterMix (Applied Biosystems). Human LDLR and GAPDH Pre-Developed TaqMan Assay Reagents (Applied Biosystems) were used to assess the levels of mRNA expressions in HepG2. The levels of LDLR mRNA were normalized to that of GAPDH. Each RNA samples was assayed in triplicate. The abundance of LDLR mRNA in untreated cells was defined as 1, and the amounts of LDLR mRNA from compound-treated cells were plotted relative to that value in FIG. 2B. The data shown are mean±s.d.
Activities of some compounds of Formulas I, II and EE on LDLR mRNA expression were determined. HepG2 cells were treated with new compounds individually at a dose less than or equal to 10 μM for 24 hours. […] In these experiments, berberine chloride was included for comparison.
On the technique in general: In qPCR the cycle at which signal appears reflects the starting amount.

In data set [4] the test system is intracellular triglyceride in HepG2 cells. The experiment in a line: Reduction of intracellular triglyceride in HepG2 cells (Example 8). The data set is classed as cell-based, human. From the text:
Berberine chloride was used for comparison. The amount of TG in untreated control cells was defined as 100% and the amounts of TG in compound-treated cells were divided to that value.

Data set [5] can be described thus: Stability of compound 69 under cell culture conditions, LC-MS of medium. In kind it is in vitro ADME, human. The conditions noted are these: for Peak Area m/z 466.1: 20 μM in HepG2 culture medium. As for the experimental part:
HepG2 cells were cultured in 6-well cell culture plate in EMEM containing 0.5% FBS overnight. Compound 69+ was added to the culture medium to a final concentration of 20 μM. Medium was collected at 0 (control), 4, 8, or 24 hours after the compound addition.
The collected media were analyzed by LC-MS on a Thermo Fisher Scientific Surveyor HPLC system and LCQ ion trap MS with electrospray ionization source. A 50×2. 1 mm Hypersil Gold C18 3 um column was used with a flow rate of 200 uL/min. The method conditions were 98% A (0.1% formic acid in water)/2% B (0.1% formic acid in acetonitrile) then a gradient to 95% B in 10 minutes. The injection volume was 10 uL.

On to `COc1cc2c(cc1OC)[C@H]1[C@@H](C)c3ccc(OC)c(OC)c3CN1CC2` [14R,13S-(+)-CRDL], for which the “effects on LDLR mRNA expression” value in data set [1] is “potent and dose-dependent effects”. The “Activity on DiI-LDL uptake” value in data set [2] (B, compound dose ≦40 μM) is reported as “++”.

For the compound `COc1ccc2cc3[n+](cc2c1OC)CCc1cc2c(cc1-3)OCO2` [Berberine, reference compound], in data set [2] (B, compound dose ≦40 μM), the “Activity on DiI-LDL uptake” value was “+”. In data set [3], the “Activity on LDLR mRNA expression (Fold of control)” value (from here on “Activity … (Fold of control)”) is on record as 1.30 ± 0.11 Fold of control. For the same compound, in data set [4] (B, compound dose ≦40 μM), the “Activity on reduction of cellular TG accumulation (% of control)” value (“Activity on reduction … (% of control)” below) is reported as 70.9 ± 5.4 % of control.

`COc1ccc2c(c1OC)CN1CCc3cc4c(cc3C1C2Cc1ccccc1)OCO4` (stereo not shown) [Compound 1, 9,10-dimethoxy-13-benzyl-5,6,7,8,13,13a-hexahydro-2H-1,3-dioxolano[4,5-g]isoquinolino[3,2-a]isoquinoline]: the “Activity on DiI-LDL uptake” value in data set [2] (A, compound dose ≦10 μM) was “+”. For the same compound, in data set [3], the “Activity … (Fold of control)” value was 1.56 ± 0.86 Fold of control.

Consider `COc1cc2c(cc1OC)C1Cc3cccc(OC)c3CN1CC2` (stereo not shown) [Compound 22, 2,3,9-trimethoxy-5,6,7,8,13,13a-hexahydroisoquinolino[3,2-a]isoquinoline], for which the “Activity on reduction … (% of control)” value in data set [4] (B, compound dose ≦40 μM) is 53.35 ± 12.68 % of control.

With `COc1ccc2c(c1OCc1ccccc1[N+](=O)[O-])CN1CCc3cc4c(cc3C1C2)OCO4` (stereo not shown) [Compound 26, 10-methoxy-9-[(2-nitrophenyl)methoxy]-5,6,7,8,13,13a-hexahydro-2H-1,3-dioxolano[4,5-g]isoquinolino[3,2-a]isoquinoline], in data set [2] (A, compound dose ≦10 μM), the “Activity on DiI-LDL uptake” value is “++”. The “Activity … (Fold of control)” value in data set [3] is reported as 1.29 ± 0.10 Fold of control.

As for `COc1ccc2c(c1OC)C(CC(C)=O)N1CCc3cc4c(cc3C1=C2)OCO4` (stereo not shown) [Compound 30, 1-(9,10-dimethoxy-5,6,7,8-tetrahydro-2H-1,3-dioxolano[4,5-g]isoquinolino[3,2-a]isoquinolin-8-yl)acetone], the “Activity on DiI-LDL uptake” value in data set [2] (A, compound dose ≦10 μM) was “+”. Further, the “Activity … (Fold of control)” value in data set [3] was 1.47 ± 0.13 Fold of control.

As to `COc1ccc2c(c1O)CN1CCc3cc4c(cc3C1C2)OCO4` (stereo not shown) [Compound 34, 10-methoxy-5,6,7,8,13,13a-hexahydro-2H-1,3-dioxolano[4,5-g]isoquinolino[3,2-a]isoquinoline-9-ol], the “Activity on DiI-LDL uptake” value in data set [2] (A, compound dose ≦10 μM) is recorded as “++”. In addition, the “Activity … (Fold of control)” value in data set [3] is 1.76 ± 0.17 Fold of control.

As for `COc1ccc2c(c1OS(=O)(=O)c1ccc(C(C)(C)C)cc1)CN1CCc3cc4c(cc3C1C2)OCO4` (stereo not shown) [Compound 38, 10-methoxy-5,6,7,8,13,13a-hexahydro-2H-1,3-dioxolano[4,5-g]isoquinolino[3,2-a]isoquinolin-9-yl 4-(tert-butyl)benzenesulfonate], the “Activity on DiI-LDL uptake” value in data set [2] (A, compound dose ≦10 μM) is recorded as “++”. The “Activity … (Fold of control)” value in data set [3] is 1.82 ± 0.10 Fold of control.

`COc1ccc2c(c1OC(=O)NC(C)C)CN1CCc3cc4c(cc3C1C2)OCO4` (stereo not shown) [Compound 41, (10-methoxy(5,6,7,8,13,13a-hexahydro-2H-1,3-dioxolano[4,5-g]isoquinolino[3,2-a]isoquinolin-9-yloxy))-N-(methylethyl)carboxamide]: in data set [2] (A, compound dose ≦10 μM), the “Activity on DiI-LDL uptake” value is “++”. Besides, the “Activity … (Fold of control)” value in data set [3] is recorded as 1.60 ± 0.03 Fold of control.

For `COc1ccc2c(c1OC(=O)N(C)C)CN1CCc3cc4c(cc3C1C2)OCO4` (stereo not shown) [Compound 43, (10-methoxy(5,6,7,8,13,13a-hexahydro-2H-1,3-dioxolano[4,5-g]isoquinolino[3,2-a]isoquinolin-9-yloxy))-N,N-dimethylcarboxamide], the “Activity on DiI-LDL uptake” value in data set [2] (A, compound dose ≦10 μM) is “++”. Also, in data set [3], the “Activity … (Fold of control)” value is recorded as 1.95 ± 0.18 Fold of control.

`COc1ccc2c(c1OC(=O)Nc1ccc(OC(F)(F)F)cc1)CN1CCc3cc4c(cc3C1C2)OCO4` (stereo not shown) [Compound 44, (10-methoxy(5,6,7,8,13,13a-hexahydro-2H-1,3-dioxolano[4,5-g]isoquinolino[3,2-a]isoquinolin-9-yloxy))-N-[4-(trifluoromethoxy)phenyl] carboxamide]: in data set [2] (A, compound dose ≦10 μM), the “Activity on DiI-LDL uptake” value is on record as “++”. Moreover, in data set [3], the “Activity … (Fold of control)” value is listed as 2.20 ± 0.06 Fold of control.

`COc1cc(NC(=O)Oc2c(OC)ccc3c2CN2CCc4cc5c(cc4C2C3)OCO5)cc(OC)c1` (stereo not shown) [Compound 45, N-(3,5-dimethoxyphenyl)(10-methoxy(5,6,7,8,13,13a-hexahydro-2H-1,3-dioxolano[4,5-g]isoquinolino[3,2-a]isoquinolin-9-yloxy))carboxamide]: in data set [2] (A, compound dose ≦10 μM), the “Activity on DiI-LDL uptake” value is reported as “++”. Further, the “Activity … (Fold of control)” value in data set [3] was 2.09 ± 0.11 Fold of control.

For `COc1ccc2c(c1OC(=O)Nc1cccc(C)c1)CN1CCc3cc4c(cc3C1C2)OCO4` (stereo not shown) [Compound 46, (10-methoxy(5,6,7,8,13,13a-hexahydro-2H-1,3-dioxolano[4,5-g]isoquinolino[3,2-a]isoquinolin-9-yloxy))-N-(3-methylphenyl)carboxamide], in data set [2] (A, compound dose ≦10 μM), the “Activity on DiI-LDL uptake” value is recorded as “++”. The “Activity … (Fold of control)” value in data set [3] is 1.80 ± 0.16 Fold of control.

Take `COc1ccc2c(c1OS(=O)(=O)c1ccccc1C)CN1CCc3cc4c(cc3C1C2)OCO4` (stereo not shown) [Compound 50, 10-methoxy-5,6,7,8,13,13a-hexahydro-2H-1,3-dioxolano[4,5-g]isoquinolino[3,2-a]isoquinolin-9-yl 2-methylbenzenesulfonate]: the “Activity on DiI-LDL uptake” value in data set [2] (A, compound dose ≦10 μM) was “+++”. Moreover, in data set [3], the “Activity … (Fold of control)” value was 4.74 ± 0.96 Fold of control.

In the case of `COc1ccc2c(c1OS(=O)(=O)c1cccs1)CN1CCc3cc4c(cc3C1C2)OCO4` (stereo not shown) [Compound 56, 10-methoxy-5,6,7,8,13,13a-hexahydro-2H-1,3-dioxolano[4,5-g]isoquinolino[3,2-a]isoquinolin-9-yl thiophene-2-sulfonate], in data set [2] (A, compound dose ≦10 μM), the “Activity on DiI-LDL uptake” value is on record as “+++”. The “Activity … (Fold of control)” value in data set [3] is 3.18 ± 0.63 Fold of control.

For the compound `COc1ccc2c(c1OS(=O)(=O)c1ccccc1)CN1CCc3cc4c(cc3C1C2)OCO4` (stereo not shown) [Compound 69, 9-benzenesulfonyloxy-10-methoxy-5,8,13,13a-tetrahydro-6H-[1,3]dioxolo[4,5-g]isoquino[3,2-a]isoquinoline], the “Activity on DiI-LDL uptake” value in data set [2] (A, compound dose ≦10 μM) is on record as “+++”. Moreover, in data set [3], the “Activity … (Fold of control)” value is 2.21 ± 0.09 Fold of control. For the same compound, the “Activity on reduction … (% of control)” value in data set [4] (A, compound dose ≦10 μM) was 60.4 ± 7.34 % of control. In addition, the “Peak Area m/z 466.1” value was 2.38e8 in data set [5] (0 (control) hours), 9.67e7 in data set [5] (4 h), 9.22e7 in data set [5] (8 h) and 7.03e7 in data set [5] (24 h). For the same compound, in data set [5] (HepG2 culture medium, up to 24 hours), the “stability under cell culture conditions” value is on record as “fairly stable under cell culture conditions”.

`COc1ccc2c(c1OCCO)CN1CCc3cc4c(cc3C1C2)OCO4` (stereo not shown) [Compound 82, 9-O-2-(1′-hydroxy-ethyl)-10-methoxy-5,8,13,13a-tetrahydro-6H-[1,3]dioxolo[4,5-g]isoquino[3,2-a]isoquinoline]: the “Activity on reduction … (% of control)” value in data set [4] (B, compound dose ≦40 μM) is reported as 53.2 ± 21.3 % of control.

Regarding `CCOC(=O)COc1c(OC)ccc2c1CN1CCc3cc4c(cc3C1C2)OCO4` (stereo not shown) [Compound 83, 2-[10-methoxy-5,8,13,13a-tetrahydro-6H-[1,3]dioxolo[4,5-g]isoquino[3,2-a]isoquinoline-9-yl]-acetic esate], the “Activity on reduction … (% of control)” value in data set [4] (B, compound dose ≦40 μM) was 63.0 ± 0.90 % of control.
